Experimental data reported in PubChem BioAssay AID248 (DTP/NCI, 2004).
“And” between values parts separate entries of the source, which are not always exact repeats. Equal values may be shown once. Toxic doses and inconclusive results are not listed.

Tested on: L1210 leukemia ip in BDF1 mice, survival T/C
Assay: NCI In Vivo Anticancer Drug Screen. Data for tumor model L1210 Leukemia (intraperitoneal) in B6D2F1 (BDF1) mice
Conditions: endpoint: mean survival time, higher = longer survival
In short: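 In this screen, tumor-bearing mice given compound are compared to those given vehicle, and their survival values are reported as a treated-to-control quotient.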

[1] = dose: 100.0 mg/kg/injection, schedule: Q01DX001 (ip), vehicle: saline
[2] = dose: 100.0 mg/kg/injection, schedule: Q04DX003 (ip), vehicle: Klucel (hydroxypropylcellulose) (HPC)
[3] = dose: 100.0 mg/kg/injection, schedule: Q04DX003 (ip), vehicle: saline with Tween-80
[4] = dose: 200.0 mg/kg/injection, schedule: Q04DX003 (ip), vehicle: saline with Tween-80
[5] = dose: 100.0 mg/kg/injection, schedule: Q04DX002 (ip), vehicle: saline with Tween-80
[6] = dose: 200.0 mg/kg/injection, schedule: Q04DX002 (ip), vehicle: saline with Tween-80
[7] = dose: 400.0 mg/kg/injection, schedule: Q04DX002 (ip), vehicle: saline with Tween-80
[8] = dose: 100.0 mg/kg/injection, schedule: Q04DX002 (ip), vehicle: Klucel (hydroxypropylcellulose) (HPC)
[9] = dose: 200.0 mg/kg/injection, schedule: Q04DX002 (ip), vehicle: Klucel (hydroxypropylcellulose) (HPC)
[10] = dose: 400.0 mg/kg/injection, schedule: Q04DX002 (ip), vehicle: Klucel (hydroxypropylcellulose) (HPC)
[11] = dose: 100.0 mg/kg/injection, schedule: Q01DX001 (ip), vehicle: carboxymethylcellulose (CMC)
[12] = dose: 200.0 mg/kg/injection, schedule: Q01DX001 (ip), vehicle: carboxymethylcellulose (CMC)
[13] = dose: 400.0 mg/kg/injection, schedule: Q01DX001 (ip), vehicle: carboxymethylcellulose (CMC)

`Cc1cc(=O)n(CC(=O)O)c2ccccc12` was tested, and the T/C (dose: 50.0 mg/kg/injection, schedule: Q04DX003 (ip), vehicle: Klucel (hydroxypropylcellulose) (HPC)) was 88 % of control, the T/C [1] was 100 % of control and the T/C [2] was 90 % of control. For the same compound, the T/C (dose: 200.0 mg/kg/injection, schedule: Q01DX001 (ip), vehicle: saline) was 100 % of control and the T/C (dose: 400.0 mg/kg/injection, schedule: Q01DX001 (ip), vehicle: saline) was 98 % of control.
`CN(C)C=Nc1ncnc2[nH]ncc12` was tested, and the T/C [3] was 107 % of control, the T/C (dose: 150.0 mg/kg/injection, schedule: Q04DX003 (ip), vehicle: saline with Tween-80) was 107 % of control and the T/C [4] was 123 % of control. For the same compound, the T/C (dose: 250.0 mg/kg/injection, schedule: Q04DX003 (ip), vehicle: saline with Tween-80) was 123 % of control.
With `Brc1ccc2c(c1)-c1cc(Br)ccc1C2` the T/C (dose: 50.0 mg/kg/injection, schedule: Q04DX002 (ip), vehicle: saline with Tween-80) was 95 % of control, the T/C [5] was 100 % of control and the T/C [6] was 103 % of control. For the same compound, the T/C [7] was 95 % of control.
`OCC(O)CSc1c(Cl)c(Cl)c(Cl)c(Cl)c1Cl` (configuration not stated) was tested, and the T/C (dose: 100.0 mg/kg/injection, schedule: Q01DX001 (ip), vehicle: saline with Tween-80) was 98 % of control and 88 % of control, the T/C [5] was 95 % of control and 101 % of control and the T/C [3] was 92 % of control. For the same compound, the T/C (dose: 200.0 mg/kg/injection, schedule: Q01DX001 (ip), vehicle: saline with Tween-80) was 93 % of control and 95 % of control, the T/C [6] was 95 % of control and 96 % of control and the T/C [4] was 99 % of control. For the same compound, the T/C (dose: 400.0 mg/kg/injection, schedule: Q01DX001 (ip), vehicle: saline with Tween-80) was 95 % of control and 86 % of control, the T/C [7] was 97 % of control and 108 % of control and the T/C (dose: 400.0 mg/kg/injection, schedule: Q04DX003 (ip), vehicle: saline with Tween-80) was 94 % of control.
`C[C@]12CC[C@H](O)CC1=CC[C@@H]1[C@@H]2CC[C@]2(C)c3nc4ccccc4cc3C[C@@H]12` was tested, and the T/C (dose: 15.6 mg/kg/injection, schedule: Q01DX Z (sc), vehicle: steriod suspending solution) was 94 % of control, the T/C (dose: 31.3 mg/kg/injection, schedule: Q01DX Z (sc), vehicle: steriod suspending solution) was 93 % of control and the T/C (dose: 62.5 mg/kg/injection, schedule: Q01DX Z (sc), vehicle: steriod suspending solution) was 94 % of control. The T/C (dose: 100.0 mg/kg/injection, schedule: Q01DX009 (sc), vehicle: steriod suspending solution) was 94 % of control, the T/C (dose: 100.0 mg/kg/injection, schedule: Q04DX003 (ip), vehicle: steriod suspending solution) was 98 % of control and the T/C (dose: 125.0 mg/kg/injection, schedule: Q01DX Z (sc), vehicle: steriod suspending solution) was 96 % of control. The T/C (dose: 200.0 mg/kg/injection, schedule: Q01DX009 (sc), vehicle: steriod suspending solution) was 92 % of control, the T/C (dose: 200.0 mg/kg/injection, schedule: Q04DX003 (ip), vehicle: steriod suspending solution) was 107 % of control and the T/C (dose: 250.0 mg/kg/injection, schedule: Q01DX Z (sc), vehicle: steriod suspending solution) was 104 % of control. The T/C (dose: 400.0 mg/kg/injection, schedule: Q01DX009 (sc), vehicle: steriod suspending solution) was 89 % of control, the T/C (dose: 400.0 mg/kg/injection, schedule: Q04DX003 (ip), vehicle: steriod suspending solution) was 106 % of control and the T/C (dose: 500.0 mg/kg/injection, schedule: Q01DX Z (sc), vehicle: steriod suspending solution) was 94 % of control.
In the case of `Cc1cc([N+](=O)[O-])c(Nc2ccc(C)c(Cl)c2)c([N+](=O)[O-])c1`, the T/C [8] was 93 % of control, the T/C [9] was 91 % of control and the T/C [10] was 96 % of control.
With `O=[N+]([O-])c1ccc(N/N=C\C2CC=C3c4ccccc4CCC3C2/C=N\Nc2ccc([N+](=O)[O-])cc2[N+](=O)[O-])c([N+](=O)[O-])c1` (configuration not stated) the T/C (dose: 50.0 mg/kg/injection, schedule: Q01DX001 (ip), vehicle: carboxymethylcellulose (CMC)) was 89 % of control, the T/C [11] was 93 % of control and the T/C [12] was 103 % of control. For the same compound, the T/C [13] was 108 % of control.
For `O=c1[nH]c2c(cnn2-c2ccccc2)c(=O)n1O`, the T/C (dose: 50.0 mg/kg/injection, schedule: Q01DX001 (ip), vehicle: saline) was 97 % of control and the T/C [1] was 100 % of control.
For `Brc1ncc2ccccc2c1Br`, the T/C [2] was 108 % of control and the T/C (dose: 200.0 mg/kg/injection, schedule: Q04DX003 (ip), vehicle: Klucel (hydroxypropylcellulose) (HPC)) was 94 % of control.
`O=C(O)CN1C(=O)NC(C2CC2)(C2CC2)C1=O` was tested, and the T/C (dose: 100.0 mg/kg/injection, schedule: Q04DX003 (ip), vehicle: acetone) was 100 % of control, the T/C (dose: 200.0 mg/kg/injection, schedule: Q04DX003 (ip), vehicle: acetone) was 96 % of control and the T/C (dose: 400.0 mg/kg/injection, schedule: Q04DX003 (ip), vehicle: acetone) was 100 % of control.
`CSc1cc(C(=O)Nc2ccc(C3=NCCN3)cc2)ccc1C(=O)Nc1ccc(C2=NCCN2)cc1` was tested, and the T/C (dose: 0.5 mg/kg/injection, schedule: Q01DX Z (ip), vehicle: carboxymethylcellulose (CMC)) was 109 % of control, the T/C (dose: 0.62 mg/kg/injection, schedule: Q01DX015 (ip), vehicle: methylcellulose (MC)) was 112 % of control and the T/C (dose: 1.25 mg/kg/injection, schedule: Q01DX015 (ip), vehicle: methylcellulose (MC)) was 108 % of control. The T/C (dose: 3.75 mg/kg/injection, schedule: Q01DX Z (ip), vehicle: carboxymethylcellulose (CMC)) was 203 % of control, the T/C (dose: 7.5 mg/kg/injection, schedule: Q01DX Z (ip), vehicle: carboxymethylcellulose (CMC)) was 231 % of control and the T/C (dose: 10.0 mg/kg/injection, schedule: Q01DX015 (ip), vehicle: methylcellulose (MC)) was 231 % of control. For the same compound, the T/C (dose: 10.0 mg/kg/injection, schedule: Q01DX Z (ip), vehicle: carboxymethylcellulose (CMC)) was 236 % of control, the T/C (dose: 15.0 mg/kg/injection, schedule: Q01DX Z (ip), vehicle: carboxymethylcellulose (CMC)) was 280 % of control and the T/C (dose: 20.0 mg/kg/injection, schedule: Q01DX015 (ip), vehicle: methylcellulose (MC)) was 286 % of control. For the same compound, the T/C (dose: 20.0 mg/kg/injection, schedule: Q01DX Z (ip), vehicle: carboxymethylcellulose (CMC)) was 287 % of control, the T/C (dose: 30.0 mg/kg/injection, schedule: Q01DX Z (ip), vehicle: carboxymethylcellulose (CMC)) was 178 % of control and the T/C (dose: 40.0 mg/kg/injection, schedule: Q01DX015 (ip), vehicle: methylcellulose (MC)) was 221 % of control. The T/C (dose: 40.0 mg/kg/injection, schedule: Q01DX Z (ip), vehicle: carboxymethylcellulose (CMC)) was 168 % of control, the T/C (dose: 50.0 mg/kg/injection, schedule: Q01DX Z (oral), vehicle: carboxymethylcellulose (CMC)) was 102 % of control and the T/C (dose: 100.0 mg/kg/injection, schedule: Q01DX Z (oral), vehicle: carboxymethylcellulose (CMC)) was 100 % of control. The T/C (dose: 150.0 mg/kg/injection, schedule: Q01DX001 (ip), vehicle: methylcellulose (MC)) was 167 % of control, the T/C (dose: 200.0 mg/kg/injection, schedule: Q01DX Z (oral), vehicle: carboxymethylcellulose (CMC)) was 104 % of control and the T/C (dose: 400.0 mg/kg/injection, schedule: Q01DX Z (oral), vehicle: carboxymethylcellulose (CMC)) was 95 % of control.
`O=C1C=C(C23CC4CC(CC(C4)C2)C3)Nc2ccccc2N1` was tested, and the T/C [8] was 94 % of control, the T/C [9] was 105 % of control and the T/C [10] was 94 % of control.
In the case of `OCC1OC(n2cnc3c([Se]Cc4ccccc4)ncnc32)C(O)C1O` (configuration not stated), the T/C (dose: 1.56 mg/kg/injection, schedule: Q01DX005 (ip), vehicle: saline) was 97 % of control, the T/C (dose: 3.12 mg/kg/injection, schedule: Q01DX005 (ip), vehicle: saline) was 94 % of control and the T/C (dose: 3.12 mg/kg/injection, schedule: Q01DX009 (ip), vehicle: saline) was 103 % of control. The T/C (dose: 6.25 mg/kg/injection, schedule: Q01DX005 (ip), vehicle: saline) was 97 % of control, the T/C (dose: 6.25 mg/kg/injection, schedule: Q01DX009 (ip), vehicle: saline) was 95 % of control and the T/C (dose: 12.5 mg/kg/injection, schedule: Q01DX005 (ip), vehicle: saline) was 110 % of control. The T/C (dose: 12.5 mg/kg/injection, schedule: Q01DX009 (ip), vehicle: saline) was 105 % of control.
With `CC12CCCC=C1CC(C(C)(C)O)CC2` (configuration not stated) the T/C (dose: 50.0 mg/kg/injection, schedule: Q01DX009 (ip), vehicle: saline with Tween-80) was 96 % of control, the T/C (dose: 100.0 mg/kg/injection, schedule: Q01DX009 (ip), vehicle: saline with Tween-80) was 100 % of control and the T/C (dose: 200.0 mg/kg/injection, schedule: Q01DX009 (ip), vehicle: saline with Tween-80) was 100 % of control.
With `CCOC(=O)CC(CC(=O)OCC)NC(=O)c1ccc(N(C)C(=O)OCc2ccccc2)cc1` the T/C [11] was 97 % of control, the T/C [12] was 100 % of control and the T/C [13] was 105 % of control.
